This passage reports 3 h FOB score results from the OligoGym collection.

HELM strings list units from the 5' end as sugar, base in round brackets, then linkage (d deoxyribose, r ribose, m 2'-O-methyl, p phosphodiester). Strings are as the collection lists them; they lack the last nucleoside at the 3' end of the tested compound. [moe] = 2'-O-(2-methoxyethyl) (MOE); [sp] = phosphorothioate linkage; [m5C] = 5-methylcytosine

For the series, the target named is APP. Briefly: mouse, dose not given. As to conditions: ASO.
With “RNA1{[moe](G)[sp].[moe]([m5C])p.[moe](A)p.[moe](T)p.[moe]([m5C])[sp].d(A)[sp].d([m5C])[sp].d(T)[sp].d(T)[sp].d(A)[sp].d([m5C])[sp].d(A)[sp].d(A)[sp].d(A)[sp].d([m5C])[sp].[moe](T)p.[moe]([m5C])p.[moe](A)[sp].[moe]([m5C])}$$$$ (last 3' nucleoside missing)”, the 3 h FOB score was 0.5 score 0-7.

In turn, “RNA1{[moe]([m5C])[sp].[moe]([m5C])p.[moe](A)p.[moe](T)p.[moe]([m5C])[sp].d(T)[sp].d(T)[sp].d([m5C])[sp].d(A)[sp].d([m5C])[sp].d(T)[sp].d(T)[sp].d([m5C])[sp].d(A)[sp].d(G)[sp].[moe](A)p.[moe](G)p.[moe](A)[sp].[moe](T)}$$$$ (last 3' nucleoside missing)” came in with a 3 h FOB score of 0.5 score 0-7.

“RNA1{[moe](T)[sp].[moe](T)p.[moe](G)p.[moe](A)p.[moe](A)[sp].d([m5C])[sp].d([m5C])[sp].d([m5C])[sp].d(A)[sp].d([m5C])[sp].d(A)[sp].d(T)[sp].d([m5C])[sp].d(T)[sp].d(T)[sp].[moe]([m5C])p.[moe](T)p.[moe](G)[sp].[moe]([m5C])}$$$$ (last 3' nucleoside missing)” had a 3 h FOB score of 0 score 0-7.

“RNA1{[moe]([m5C])[sp].[moe](T)p.[moe]([m5C])p.[moe]([m5C])p.[moe](A)[sp].d(A)[sp].d(T)[sp].d(T)[sp].d(T)[sp].d(T)[sp].d(A)[sp].d(A)[sp].d([m5C])[sp].d(T)[sp].d(T)[sp].[moe](G)p.[moe]([m5C])p.[moe](A)[sp].[moe]([m5C])}$$$$ (last 3' nucleoside missing)”: the 3 h FOB score stood at 2.75 score 0-7.

In turn, “RNA1{[moe](T)[sp].[moe](G)p.[moe](G)p.[moe](T)p.[moe]([m5C])[sp].d(T)[sp].d(A)[sp].d(T)[sp].d(A)[sp].d(T)[sp].d(A)[sp].d(T)[sp].d(T)[sp].d(T)[sp].d([m5C])[sp].[moe](A)p.[moe](G)p.[moe](G)[sp].[moe]([m5C])}$$$$ (last 3' nucleoside missing)” showed a 3 h FOB score of 0 score 0-7.

For the substance “RNA1{[moe](A)[sp].[moe]([m5C])p.[moe](T)p.[moe]([m5C])p.[moe](G)[sp].d(A)[sp].d(A)[sp].d([m5C])[sp].d([m5C])[sp].d(A)[sp].d([m5C])[sp].d([m5C])[sp].d(T)[sp].d([m5C])[sp].d(T)[sp].[moe](T)p.[moe]([m5C])p.[moe]([m5C])[sp].[moe](A)}$$$$ (last 3' nucleoside missing)”, the 3 h FOB score turned out to be 0 score 0-7.

For the substance “RNA1{[moe](T)[sp].[moe]([m5C])p.[moe](T)p.[moe](T)p.[moe](G)[sp].d(A)[sp].d(T)[sp].d(A)[sp].d(T)[sp].d(T)[sp].d(T)[sp].d(G)[sp].d(T)[sp].d([m5C])[sp].d(A)[sp].[moe](A)p.[moe]([m5C])p.[moe]([m5C])[sp].[moe]([m5C])}$$$$ (last 3' nucleoside missing)”, the 3 h FOB score was 5 score 0-7.

The substance “RNA1{[moe](G)[sp].[moe](G)p.[moe](T)p.[moe](T)p.[moe](T)[sp].d(A)[sp].d([m5C])[sp].d([m5C])[sp].d(T)[sp].d(T)[sp].d(T)[sp].d(A)[sp].d(A)[sp].d([m5C])[sp].d(A)[sp].[moe](T)p.[moe](T)p.[moe]([m5C])[sp].[moe]([m5C])}$$$$ (last 3' nucleoside missing)” returned a 3 h FOB score of 0.25 score 0-7.

In the case of “RNA1{[moe](A)[sp].[moe](T)p.[moe](G)p.[moe]([m5C])p.[moe](A)[sp].d(T)[sp].d([m5C])[sp].d(A)[sp].d(A)[sp].d(T)[sp].d(T)[sp].d([m5C])[sp].d([m5C])[sp].d(T)[sp].d(T)[sp].[moe](T)p.[moe](G)p.[moe](G)[sp].[moe](G)}$$$$ (last 3' nucleoside missing)”, the 3 h FOB score stood at 0 score 0-7.

Consider “RNA1{[moe](A)[sp].[moe](T)p.[moe](G)p.[moe](T)p.[moe](G)[sp].d(A)[sp].d(T)[sp].d(T)[sp].d(T)[sp].d([m5C])[sp].d(A)[sp].d([m5C])[sp].d(T)[sp].d(A)[sp].d(A)[sp].[moe]([m5C])p.[moe]([m5C])p.[moe](G)[sp].[moe](G)}$$$$ (last 3' nucleoside missing)”, for which the 3 h FOB score is 0 score 0-7.

Consider “RNA1{[moe](T)[sp].[moe]([m5C])p.[moe](A)p.[moe](T)p.[moe]([m5C])[sp].d(A)[sp].d(A)[sp].d([m5C])[sp].d(T)[sp].d(T)[sp].d(T)[sp].d(T)[sp].d(T)[sp].d(A)[sp].d(G)[sp].[moe](T)p.[moe]([m5C])p.[moe]([m5C])[sp].[moe](T)}$$$$ (last 3' nucleoside missing)”, for which the 3 h FOB score worked out at 0.67 score 0-7.

“RNA1{[moe](G)[sp].[moe]([m5C])p.[moe]([m5C])p.[moe](A)p.[moe](A)[sp].d([m5C])[sp].d(T)[sp].d(T)[sp].d(A)[sp].d(T)[sp].d(T)[sp].d([m5C])[sp].d(T)[sp].d([m5C])[sp].d(A)[sp].[moe](A)p.[moe](G)p.[moe](G)[sp].[moe](G)}$$$$ (last 3' nucleoside missing)”: the 3 h FOB score stood at 1 score 0-7.

As to “RNA1{[moe](A)[sp].[moe]([m5C])p.[moe](T)p.[moe](T)p.[moe]([m5C])[sp].d(T)[sp].d(A)[sp].d([m5C])[sp].d(T)[sp].d(A)[sp].d([m5C])[sp].d(T)[sp].d(T)[sp].d(T)[sp].d(G)[sp].[moe](T)p.[moe]([m5C])p.[moe](T)[sp].[moe](T)}$$$$ (last 3' nucleoside missing)”, the 3 h FOB score is 1.5 score 0-7.

The substance “RNA1{[moe]([m5C])[sp].[moe](G)p.[moe](G)p.[moe]([m5C])p.[moe](A)[sp].d(G)[sp].d(T)[sp].d(T)[sp].d(T)[sp].d(A)[sp].d(A)[sp].d(A)[sp].d(A)[sp].d(T)[sp].d(T)[sp].[moe]([m5C])p.[moe](T)p.[moe]([m5C])[sp].[moe](T)}$$$$ (last 3' nucleoside missing)” yielded a 3 h FOB score of 0 score 0-7.

For the substance “RNA1{[moe](G)[sp].[moe](A)p.[moe](G)p.[moe](A)p.[moe](T)[sp].d(A)[sp].d([m5C])[sp].d(T)[sp].d(T)[sp].d(G)[sp].d(T)[sp].d([m5C])[sp].d(A)[sp].d(A)[sp].d([m5C])[sp].[moe](G)p.[moe](G)p.[moe]([m5C])[sp].[moe](A)}$$$$ (last 3' nucleoside missing)”, the 3 h FOB score amounted to 1.67 score 0-7.

“RNA1{[moe](A)[sp].[moe]([m5C])p.[moe](A)p.[moe]([m5C])p.[moe]([m5C])[sp].d(G)[sp].d([m5C])[sp].d([m5C])[sp].d([m5C])[sp].d(A)[sp].d([m5C])[sp].d([m5C])[sp].d(A)[sp].d(T)[sp].d(G)[sp].[moe](A)p.[moe](G)p.[moe](T)[sp].[moe]([m5C])}$$$$ (last 3' nucleoside missing)”: the 3 h FOB score stood at 1 score 0-7.

On to “RNA1{[moe](G)[sp].[moe]([m5C])p.[moe](A)p.[moe]([m5C])p.[moe]([m5C])[sp].d(A)[sp].d(T)[sp].d([m5C])[sp].d(T)[sp].d(A)[sp].d(T)[sp].d(A)[sp].d(A)[sp].d(T)[sp].d(A)[sp].[moe]([m5C])p.[moe]([m5C])p.[moe](A)[sp].[moe](T)}$$$$ (last 3' nucleoside missing)”, for which the 3 h FOB score turned out to be 0 score 0-7.
